Laboratory results from patent US10189887B2, “Polypeptides and uses thereof for reducing CD95-mediated cell motility” (INSERM (INSTITUT NATIONAL DE LA SANTÉ ET DE LA RECHERCHE …, priority 2014, dated 2019).

Key:
[1] = system: PLCγ1-dependent Ca^2+ response to TCR stimulation; assay: Ca^2+ response to TCR stimulation (selectivity); assay type: cell-based; details: TAT-CID pretreatment
Experimental: (§1) T cells were loaded with Fura-PE3-AM (1 μM) at room temperature for 30 min in Hank's Balanced Salt Solution (HBSS). After washing, the cells were incubated for 15 min in the absence of Fura-PE3-AM to complete de-esterification of the dye. Cells were placed in the temperature controlled chamber (37° C.) of an inverted epifluorescence microscope (Olympus IX70) equipped with an ×40 UApo/340-1.15 W water-immersion objective (Olympus), and fluorescence micrograph images were captured at 510 nm and 12-bit resolution by a fast-scan camera (CoolSNAP fx Monochrome, Photometrics). To minimize UV light exposure, a 4×4 binning function was used. Fura-PE3 was alternately excited at 340 and 380 nm, and the ratios of the resulting images (emission filter at 520 nm) were produced at constant intervals (10 seconds). The Fura-PE3 ratio (Fratio 340/380) images were analyzed offline with Universal Imaging software, including Metafluor and Metamorph. Fratio reflects the intracellular Ca^2+ concentration changes. Each experiment was repeated 3 times, and the average of more than 20 single-cell traces was analyzed.

MDA-MB-231 = assay: Boyden chamber migration of triple negative breast cancer cells; assay type: cell-based; details: MDA-MB-231 pre-incubated 1 hour with 10 μM; cl-CD95L 100 ng/mL for 24 h
Experimental: Boyden chambers contained membranes with a pore size of 8 μm (Millipore, Molsheim, France). After hydration of the membranes, breast cancer cells (10^5 cells per chamber) were added to the top chamber in low serum (1%)-containing medium. The bottom chamber was filled with low serum (1%)-containing medium in the presence or absence of cl-CD95L (100 ng/mL). Cells were cultured for 24 h at 37° C. To quantify migration, cells were mechanically removed from the top-side of the membrane using a cotton-tipped swab, and migrating cells from the reverse side were fixed with methanol and stained with Giemsa. For each experiment, five representative pictures were taken for each insert, then cells were lyzed and absorbance at 560 nm correlated to the amount of Giemsa stain was measured.

Th17 cells = assay: Endothelial transmigration of CD4 T-cell subsets (Th17, Th1, Treg), Boyden chamber; assay type: cell-based, human; details: indicated concentrations of peptide, Boyden Chamber assay
Experimental: Animal experiments were subject to ethical review by the University of Nottingham were appropriate and conducted using PPL 40/3412 in accordance with the UK Home Office guidance and under ASPA (1986). For the generation of murine T-cell subsets, spleens were removed from C57Bl/6 mice and single cell suspensions prepared. CD4^+CD62L^+ naïve cells were isolated using Miltenyi Biotec microbeads. Naïve human CD4^+ T-cells were prepared using the Miltenyi Biotec naïve CD4^+ T-cell isolation kit II, which are sorted produced a 99% pure population of CD4^+CD45RA^+ cells. Purified cells were cultured in complete IMDM media all with α-CD3 (1 μg/ml), α-CD28 (2 μg/ml), and as follows; Th1 cells IL-12 (10 ng/ml) with α-IL-4 (10 μg/ml), Th2 cells IL-4 (10 ng/ml) and α-IFN-γ (10 μg/ml), Th17 cells Il-6 (10 ng/ml), TGF-β1 (2 ng/ml), α-IFN-γ (10 μg/ml) with α-IL-4 (10 μg/ml), and Tregs IL-2 (10 ng/ml) TGF-β1 (5 ng/ml), α-IFN-γ (10 μg/ml) and α-IL-4 (10 μg/ml). Cells were converted to T-cell subsets over five days as outlined above. All cytokines were supplied by PeproTech (London, UK). Mouse CD3 (clone 2C11); human CD3 (UCHT1); mouse CD28 (37.51); human CD28 (CD28.2); mouse IL-4 (11B11); human IL-4 (MP4-25D2); mouse IFN-γ (XMG1.2); human IFN-γ B27 came from BD Pharmigen.
After hydration of the Boyden chamber membranes containing 3 μm pore size membranes (Millipore, Molsheim, France), activated T-lymphocytes (10^6) were added to the top chamber on a confluent monolayer of HUVEC in a low serum (1%)-containing medium. […] In experiments using human sera, 500 μl of serum from either healthy donors or SLE patients was added in the lower reservoir. Cells were cultured for 24 h at 37° C. in a 5% CO2 humidified incubator. Transmigrated cells were counted in the lower reservoir by flow cytometry using a standard of 2.5×10^4 fluorescent beads (Flow-count, Beckman Coulter).
Blocking antibodies were used against E-selectin and ICAM-1 in the CHEMICON® endothelial cell adhesion assay (Millipore). Briefly, after activation of the endothelial cell layer with TNF-α, anti-mouse Ig controls, anti-E-selectin or anti-ICAM-1 were added at final concentrations of 10 μg/ml. Thereafter calcein-AM-stained T-cell subsets were incubated for 24 hours and unbound cells are washed. Cells attached to the endothelium were assessed using fluorescence plate reader.

murin CD95 = assay: Calcium response in mouse CD95-expressing CEM-IRC cells; assay type: cell-based; details: CEM-IRC cells reconstituted with wild type mouse CD95
[2] = system: CD95-mediated Ca^2+ response; assay: Calcium response to cl-CD95L in Jurkat cells (Fura2/FuraPE3 video imaging); assay type: cell-based; details: Jurkat pre-incubated 1 hr, 10 μM peptide, 100 ng/ml cl-CD95L
Experimental: Cells were loaded with Fura2-AM (1 μM) at resting temperature for 30 min in Hank's Balanced Salt Solution (HBSS). After washing with HBSS, the cells were incubated for 15 min in the absence of Fura2-AM to complete de-esterification of the dye. Cells were placed in a thermostated chamber (37° C.) of an inverted epifluorescence microscope (Olympus IX70) equipped with a ×40, UApo/340-1.15 W water-immersion objective (Olympus), and fluorescence micrograph images were captured at 510 nm and at 12-bit resolution by a fast-scan camera (CoolSNAP fx Monochrome, Photometrics). To minimize UV light exposure, 4×4 binning function was used. Fura2-AM was alternately excited at 340 and 380 nm, and ratios of the resulting images (excitations at 340 and 380 nm and emission filter at 520 nm) were produced at constant intervals (5 s or 10 s according to the stimulus). […] Fluorescent images were pseudocolored using the IMD display mode in MetaFluor and assembled without further manipulation in Photoshop (Adobe). Raw data were acquired with MetaFluor and graphed in Origin (OriginLab). [Ca^2+]i was calculated using the following equation: [Ca^2+]i=Kd(R−Rmin)/(R−Rmax)×Sf2/Sf1, where Kd is the Fura2-AM dissociation constant at the two excitation wavelengths (F340/F380); Rmin is the fluorescence ratio in the presence of minimal calcium, obtained by chelating Ca^2+ with 10 mM EGTA; Rmax is the fluorescence ratio in the presence of excess calcium, obtained by treating cells with 1 μM ionomycin; Sf2 is the fluorescence of the Ca^2+-free form; and Sf1 is the fluorescence of the Ca^2+-bound form of Fura2-AM at excitation wavelengths of 380 and 340 nm, respectively. In some experiments cells were placed in a Ca^2+-free medium consisting of the HBSS described above in which CaCl2 was omitted and 100 μM EGTA was added in order to chelate residual Ca^2+ ions. This medium was added to the cells just before recording to avoid leak of the intracellular calcium stores.
as §1

## TAT-CID: cell penetrating peptide linking the 36-amino acid-stretch of CID (CD95 residues 175 to 210) to the HIV-TAT sequence; SEQ ID NO: 6 (RKKRRQRRRKRKEVQKTCRKHRKENQGSHESPTLNPETVAINLSD; TAT-CID)
[1]
  PLCγ1-dependent Ca^2+ response to TCR stimulation: did not alter this signal
MDA-MB-231
  cell migration (Boyden chamber assay): inhibits migration
Th17 cells
  CD95-mediated endothelial transmigration of Th17 cells: inhibited the CD95-mediated endothelial transmigration of human Th17 cells in a dose-dependent manner
Murin CD95
  CD95-mediated Ca^2+ response: failed to inhibit the CD95-mediated Ca^2+ response
[2]
  calcium response to cl-CD95L: abolished the induction of the CD95-mediated Ca^2+ signal
[2]; listed as TAT CID 175-210
  calcium response to cl-CD95L: greatly reduced the calcium response
